Data published in patent US20130274212A1, “Sesterterpene Compounds and Use Thereof” (SNU R&DB FOUNDATION, priority 2010, published 2013).
pEC50, pIC50: −log10 of the molar value.

Columns and labels:
[1] = test system: LXR; test: GAL-hLXRa or GAL-hLXRB luciferase reporter antagonist assay in CV-1 cells; format: cell-based, human; settings: LXR agonist T0901517 500 nM
Protocol: (§1) Animal cell line CV-1 was used in transfection search. Cells were cultured in DMEM medium within a cell incubator containing 5% carbon dioxide at 37° C. The medium contained 10% fetal bovine serum (FBS), 100 U/ml penicillin, and 100 μg/ml streptomycin. On day 1 of the experiment, CV1 cells were seeded in a 96-well plate at 5,000 cells/well. On day 2, the seeded cells were transfected with plasmid expressing GAL-hLXRa or GAL-hLXRB, plasmid expressing luciferase gene, and plasmid expressing β-galactosidase, by using a transfection reagent, Superfect (QIAGEN). After 16 hours, the transfected cells were treated with compounds of Chemical Formula I dissolved in dimethylsulfoxide (DMSO) by the concentrations (here, the final concentration of the LXR agonist, T0901517, was 500 nM). Cells treated with dimethylsulfoxide having the final concentration of 1% were used as a negative control group. After culturing for 24 hours, the cells were lysed by using a lysis buffer, and luciferin was added thereto to measure the luciferase activity by a luminometer. After addition of an ONPG reagent, β-galactosidase activity was measured by an ELISA reader. The measured luciferase value was corrected by the activity value of β-galactosidase. […] Accordingly, it was verified that the compounds of Chemical Formula I are antagonist compounds selective to LXR.

[2] = target: Nurr1 (Mus musculus, UniProt Q06219); test: GAL-mNurr1 luciferase reporter transfection assay in CV-1 cells; format: cell-based; settings: GAL-mNurr1, luciferase corrected by β-galactosidase, 24 hours
Sequence of Nurr1 (Q06219 360-598 limits assumed): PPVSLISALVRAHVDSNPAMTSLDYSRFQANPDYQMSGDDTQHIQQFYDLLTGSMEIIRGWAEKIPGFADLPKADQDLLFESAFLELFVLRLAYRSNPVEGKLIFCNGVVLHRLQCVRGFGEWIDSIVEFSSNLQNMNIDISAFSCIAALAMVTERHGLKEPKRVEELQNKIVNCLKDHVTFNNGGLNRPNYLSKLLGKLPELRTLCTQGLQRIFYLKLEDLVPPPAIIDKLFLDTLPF
Protocol: as §1, with “GAL-mNurr1,” for “GAL-hLXRa or GAL-hLXRB,”, “β-galactosidase” for “β-galactosidase,”, “concentrations.” for “concentrations (here, the final concentration of the LXR agonist, T0901517, was 500 nM).”, “were” for “are antagonist”, “Nurr1.” for “LXR.”

[3] = test system: BKS.Cg-+Lepr^db/+Lepr^db (db/db) mice; test: Anti-diabetic efficacy in db/db mice (blood sugar, insulin, adiponectin, glucose and insulin tolerance); format: in vivo, mouse
Protocol: In the present example, in order to verify efficacy to prevent and treat diabetes of the compound of Chemical Formula I (CMDD-X or Compound 7) according to the present invention, BKS.Cg-+Lepr^db/+Lepr^db (db/db) mice as an insulin-independent diabetes animal model and general mice (C57BL/6J) fed with high-fat feedstuff were used. After the disease animal model was orally administered with CMDD-X, the diabetes-related index between the administered group and the control group was measured to verify the efficacy as an agent for preventing and treating diabetes. BKS.Cg-+Lepr^db/+Lepr^db (db/db) mice (male, 7-week old) as type 2 diabetes animal model were purchased and used. The experiment animals were adapted to a housing environment for 1 week while pellet type general diet (lab-chow) was supplied, and then divided into 2 groups of 18 mice each by randomized block design to have similar blood sugar and body weight. For general mice fed with high-fat feedstuff as another animal model, 6-week old C57BL/6J mice was purchased, and then were adapted to a lap environment for 2 weeks. After that, high-fat diet containing 35% fat diet (weight ratio, Research Diets. Co. Ltd.) was supplied for 14 weeks. The efficacy to prevent and treat diabetes by CMDD-X was observed through oral administration. A mouse fed with only 0.5% carboxylmethyl cellulose, as a medicine delivery, was used as a negative control group. The medicine was orally administered to the db/db mice for 4 weeks, a total of 28 days, and to the C57BL/6J mice, which was fed with the high-fat diet, for the last 6 weeks, at a dose of 10 mg/kg/day. The experiment animals after administration were fasted for 15 hours before autopsy, and then the blood taken from the orbital venous treated with heparin. […] The other organ tissues were rapidly cooled in the liquid nitrogen immediately after removal thereof, and kept at −70° C. and then analyzed. T-test was conducted with respect to the control group and the administered group, a significant difference of less than 5% (P<0.05) was determined as having have a statistical significance.
In order to measure the blood sugar reduction efficacy of the compound of Chemical Formula I (CMDD-X or Compound 7), the blood was collected through tail veins of the db/db mice before experiment ending, after feeding, and after stomach was empty for 15 hours, and the blood sugar was measured by using a glucose oxidase method. […]
The insulin and adiponectin concentrations of the plasma, obtained from the orbital venous of the db/db mice orally administered with CMDD-X (or Compound 7) for 4 weeks, were measured by using an Elisa Kit. […]

[4] = test system: db/db mice; test: Renal failure as diabetes complication: blood urea nitrogen in db/db mice; format: in vivo, mouse; settings: oral 10 mg/kg/day, 4 weeks
Protocol: In order to verify the efficacy to treat renal failure as a diabetes complication, a db/db disease animal model was used. 8-week old db/db mice were orally administered with the compound of Chemical Formula I (CMDD-X or Compound 7) at a dose of 10 mg/kg/day for 4 weeks, and then the blood urea nitrogen as a marker to treat renal failure was measured.

[5] = test system: Gyk, LXR, SREBP1c, SCD1, PPARa, UCP gene expression; test: Gene expression analysis (micro-array, Q-RT PCR) in diabetic mice fed with compound; format: in vivo, mouse
Protocol: Gene expression analysis was conducted to establish the mechanism. The gene analysis was conducted by using micro-array and the Q-RT PCR method. […] Expressions of PPARa and UCP, which are genes for burning the newly generated fat to release heat, were increased (FIG. 13).

[6] = test system: C57BL/6 mice administered with MPTP; test: MPTP-induced Parkinson's disease mice, Rotarod exercise capacity; format: in vivo, mouse; settings: oral 5 mg/kg once per day for 5 days before MPTP 25 mg/kg; measured after 3 days
Text: In the present example, in order to verify efficacy to prevent and treat Parkinson's Disease of the compound of Chemical Formula I according to the present invention in the Parkinson's Disease as one of neurodegenerative diseases, mice administered with 1-methyl-4-phenyl-1,2,3,6-tetrahydropyridine (MPTP) were used. The efficacy to prevent and treat the Parkinson's Disease was verified by administering the compound of Chemical Formula I (CMDD-X or Compound 7) to a Parkinson's Disease-induced disease model and then measuring exercise capacity of the mice. C57BL/6 mice (male, 12-week old) were used. The mice were adapted to a housing environment for 1 week while pellet type general diet was supplied, and then divided into 3 groups of 5 mice each to have similar body weights. Before MPTP administration, the compound CMDD-X was orally administered at a concentration of 5 mg/kg. After 3 hours, probenecid as MPTP efflux inhibitor was intraperitoneally administered to the mice at a concentration of 250 mg/kg, and, after 2 hours, 25 mg/kg of MPTP was intraperitoneally administered. Administration was conducted once per one day for a total of 5 days, and, after 3 days, exercise capacity of the mice was measured by using the Rotarod. […]

Row | pIC50 [1] | pEC50 [2] | SMILES | insulin tolerance test: final blood sugar decreased as compared with the control group ([3]; insulin 3 unit/kg) | blood sugar after food intake, lower than that of the control group ([3]; oral 10 mg/kg/day, 4 weeks) | blood sugar at the time of an empty stomach, reduction ([3]; oral 10 mg/kg/day, 4 weeks, fasted 15 hours) | blood insulin concentration, relative to that of the control group ([3]; oral 10 mg/kg/day, 4 weeks, plasma, Elisa Kit) | efficacy on renal failure (blood urea nitrogen) [4] | expressions of LXR, SREBP1c, and SCD1 [5] | expression of Gyk (glycolysis biomarker), increase ([5]; micro-array and Q-RT PCR) | exercise capacity (Rotarod) [6]
1 | 7.68 | 7.55 | CC(C)=CCC/C(C)=C/[C@@H]1CC(C)=C[C@]2(C=C(COS(=O)(=O)c3ccc(C)cc3)[C@H]3CC(=O)C(C)=C[C@H]3O2)O1 [Compound 1] | – | – | – | – | – | – | – | –
2 | 8.30 | 8.15 | CC(C)=CCC/C(C)=C/[C@@H]1CC(C)=C[C@]2(C=C(C=O)[C@H]3CC(=O)C(C)=C[C@H]3O2)O1 [Compound 4] | – | – | – | – | – | – | – | –
3 | 7.96 | 7.49 | CC(C)=CCC/C(C)=C/[C@@H]1CC(C)=C[C@]2(C=C(CF)[C@H]3CC(=O)C(C)=C[C@H]3O2)O1 [Compound 7] | 58% | 27% | 28% | 73% | somewhat superior efficacy as compared with CMDD-X | very increased | 1.3 times | the same results as CMDD-X
4 | 7.07 | 7.60 | C#CCOCC1=C[C@]2(C=C(C)C[C@@H](/C=C(\C)CCC=C(C)C)O2)O[C@@H]2C=C(C)C(=O)C[C@H]12 [Compound 8] | – | – | – | – | – | – | – | –
